Laboratory results: ChEMBL document CHEMBL3826906, “Synthesis of MR-49, a deiodinated analog of tetraiodothyroacetic acid (tetrac), as a novel pro-angiogenesis modulator” (2016)

Experiments:
Mus musculus [1] = test: Pro-angiogenic activity in Balb/c mouse subcutaneously implanted 4 times with 10 ug/implant compound treated mouse EHS-derived matrigel assessed as FGF2-induced matrigel plug vascularization by measuring increase in hemoglobin level measured after 7 to 10 days by spectrophotometric analysis relative to control; format: functional
Mus musculus [2] = test: Antiangiogenic activity in Balb/c mouse subcutaneously implanted 4 times with 10 ug/implant compound treated mouse EHS-derived matrigel assessed as inhibition of FGF2-induced matrigel plug vascularization by measuring decrease in hemoglobin level measured after 7 to 10 days by spectrophotometric analysis relative to control; format: functional

Row | Structure (SMILES) | fold change (FC) (Mus musculus [1]) | inhibition (INH) (Mus musculus [2])
1 | O=C(O)Cc1cc(I)c(Oc2ccc(O)cc2)c(I)c1 | 1.6 | 
2 | N[C@@H](Cc1cc(I)c(Oc2ccc(O)c(I)c2)c(I)c1)C(=O)O [LIOTHYRONINE] | 1.4 | 
3 | O=C(O)Cc1cc(I)c(Oc2cc(I)c(O)c(I)c2)c(I)c1 [TETRAC] |  | 50%
